Measurements as given in patent US11938220B2, “Sustained-release anesthetic compositions and methods of preparation thereof” (TLC Biopharmaceuticals, Inc., priority 2018, dated 2024).

Test system: Sprague-Dawley rats after paw incision
Assay: Anesthetic effect in a paw incision rat model (Von Frey, 50% paw withdrawal threshold)
Format: in vivo
Conditions: intra-plantar injection after paw incision, 1.9 mg ropivacaine articles, 1.33 mg ER Bupivacaine per incision, 0.5 hour after injection
Description: FIG. 1A is a graph depicting 50% paw withdrawal threshold by a Von Frey test; wherein an anesthetic composition in accordance with the present disclosure (Ropivacaine composition) is our test article and ropivacaine injectable solution (unformulated ropivacaine) and commercial extended release liposomal bupivacaine (ER Bupivacaine) are used as reference articles. Saline, Ropivacaine composition, Ropivacaine injectable solution, and ER Bupivacaine were intra-plantarly administered after paw incision; the error bars represent the standard error of mean (SEM); and *:P<0.05 when compared to ER Bupivacaine group; BBL=Before surgery baseline; ABL=After surgery baseline.
FIG. 1B is a graph depicting the percentage of maximum possible effects (% MPE), calculated from the 50% paw withdrawal threshold using the formula % MPE=(Thresholdaftertreatment−ABL)/(BBL−ABL)×100%; wherein the error bars represent the standard error of mean (SEM); *:P<0.05 when compared to ER Bupivacaine group. MPE over 30% is considered effective;
Sprague-Dawley rats were used for evaluating the anesthetic efficacy after paw incision as described in Pain. 1996 March; 64(3):493-501. […]
Before surgery baselines (BBL) of 27 rats were measured −1 to −3 days prior to surgery; after surgery baselines (ABL) of 27 rats were measured 30 minutes after surgery. […]

SMILES: CCCN1CCCC[C@H]1C(=O)Nc1c(C)cccc1C [unformulated ropivacaine, ropivacaine]
- 50% paw withdrawal threshold at T=0.5 hour: 11.47 g
